The subject of test [1] is DAOY medulloblastoma cells. The test is described as follows: DAOY medulloblastoma s.c. xenografts in SCID mice. The format is in vivo. The conditions noted are these: treatment from day 6, by day 23. The protocol:
DAOY medulloblastoma cells were implanted subcutaneously into the flanks of SCID mice. On day 6, mice were divided into 3 groups, one group receiving Compound 100, one group receiving Compound 102, and one group receiving vehicle alone. The subcutaneous tumor masses were measured on day 6, day 13, day 18, and on day 23 when all animals were sacrificed. […] In this model DAOY cells, when untreated, reached their maximum growth about 2 weeks after implantation with slow regression thereafterwards.

The next test relates to U373 cells. The experiment in a line: Cell cycle distribution of U373 cells by FACS. The format is cell-based, human. Conditions: U373, 48 hours. The method, then:
Cells in unsynchronized logarithmic growth were exposed to vehicle or drug and adherent cells and cells in the media were collected. Harvested cells were fixed with 70% cold ethanol for 20 min at −20 degrees, washed with PBS, and stained with 10 ug/ml of PI and 1 ug/ml RNAse in TBS for 30 minutes and analyzed by FACS. A, Flow cytometry profiles of U87 cells after exposures to DMSO only, compound 102 only, 5 uM; TMZ only, 25 uM; compound 102 with TMZ combination, doxorubicin only, 2.0 uM and compound 102 with doxorubicin combination. B, Flow cytometry profiles of U373 cells. Exposures as in A, and C, Schema of proposed mechanisms of compound 102 enhancement of cancer chemotherapy.
We analyzed cell cycle patterns of U87MG and U373 cells 48 hours after exposure to TMZ or DOX alone and in combination with compound 102.
For orientation: Flow cytometry measures light scatter and fluorescence of single cells or particles in a stream.

A further test has as its system NB xenografts. The experiment in a line: Histologic examination of xenografts 24 hours after single i.p. injection. The format is in vivo, SCID mice. The conditions noted are these: compound 102 1.5 mg/kg, TMZ 80 mg/kg.
For a further test, the system named is U87MG cells. The test is described as follows: Cellular and molecular changes in U87MG cells (Western blots, IFS). Type of test: cell-based, human. The protocol: D, Western blots of U87 lysates: TCTP, pPlk (Tre-210), total Plk, and β-actin. E, IFS of TCTP in U87 cells, F, Western blots p53 (ser-15), pMDM2 (ser-166), and β-actin and G, IFS of p53 (ser-15).
5×10^6 U87MG cells were inoculated s.c. into each flank of 20 SCID mice. When the xenografts were 0.5+/−0.1 cm (day 0), 5 animals each received i.p. vehicle alone days 1-12 (50% DMSO/H20); compound 102 alone at 1.5 mg/kg days 1-3, 5-7, & 9-11; TMZ alone at 80 mg/kg days 4, 8, 12; or both drugs at the same doses and schedules. If xenografts reached 1800 mm^3, animals were sacrificed. […] B, Survival curve combining the data from the study shown in FIG. 12A, with a second identical study involving a total of 10 animals with two xenografts each. Disease-free survival was defined as no recurrence of either xenografts. […] As in 12A, except that xenografts of SH-SY5Y cells were implanted in one flank only and animals were treated with one additional cycle of drugs, i.e., compound 102 on days 13-15, TMZ, on day 16, and compound 102 plus TMZ on the same schedules. […] E, Western blots of U87 cells in culture 24 hours after exposure to compound 102 at 2.5 uM, TMZ at 25 uM or DOX at 2 uM, and compound 102 plus TMZ or DOX. F, Western blots of U373 cells 24 hours after exposure to compound 102 at 2.5 uM, doxorubicin at 2 uM, and both drugs. G, Western blots of U373 cells 24 hours after exposure to TMZ at 25 uM, okadaic acid at 2 nM, and both drugs.
TCTP is an abundant, highly conserved, multifunctional protein that binds to and stabilizes microtubules before and after mitosis and also exerts potent anti-apoptotic activity (Bommer and Thiele, 2004; Yarm, 2002; Susini et al, 2008) (FIG. 11E).
[…] Akt-1 activation, however, may be anti- or proapoptotic depending on the context of cell signaling (Andrabi et al, 2007).
The effects of compound 102, TMZ, doxorubicin (DOX), a widely used anti-cancer drug that disrupts DNA replication, compound 102 plus TMZ, and compound 102 plus DOX on the amount of pAkt, p53 and MDM2 in U87MG, a cell line with wild-type p53, and in U373, a cell line with mutant p53 (Short et al, 2007) were assessed by Western blots.
(A western blot detects proteins with antibodies after separation by electrophoresis.)

Setting [2] is: U87MG, 24 hours, compound 102 2.5 uM, TMZ 25 uM, DOX 2 uM.

Molecules are shown by their SMILES. Entries after “also recorded” stand apart in the source; their conditions may differ.

Consider `CC(C)(C)OC(=O)N1CCN(C(=O)C2C(C(=O)O)[C@H]3CC[C@@H]2O3)CC1` (stereo partly shown) [Compound 102], for which, in test [1], the “DAOY subcutaneous tumor mass” value is listed as “marked regression”. Further, the G1 phase cells entry in the test on U373 cells (compound 102 5 uM, TMZ 25 uM, doxorubicin 2.0 uM) was “no effect”. For the same compound, in the test with U373 cells (same concentrations), the G2/M phase cells result is recorded as “no effect” and the S phase cells result was “no effect”. For the same compound, the “cells with pyknotic nuclei” value in the test on NB xenografts is recorded as 50 % of cells. Moreover, the “intracellular levels of p53 by immunofluorescence staining” value in the test with U87MG cells (24 hour, compound 102 2.5 uM, TMZ 25 uM) is “reduction”. Further, in the test on U87MG cells (U87MG, 2.5 uM, 24 hour), the TCTP entry is on record as “marked decrease”; the “microtubule and mitotic morphology” value is “disordered microtubules and abnormal mitotic figures”; the pPlk-1 result was “increased”; the “phosphorylated MDM2” value is on record as “increased”. Moreover, in the test with U87MG cells (setting [2]), the MDM2 result is given as “increased”, the p53 entry is given as “decreased; also recorded: eliminated” and the pAkt-1 entry is on record as “increased”.

These data come from US9526915B2, “Methods for regulating cell mitosis by inhibiting serine/threonine phosphatase” (priority 2008, dated 2016).
